For data set [1], the target named is α4β2 nAChR (Rattus norvegicus, UniProt P09483+P12390). Format: binding. Particulars: test ligand concentrations up to 1 mM.
The target of data set [2] is T1, wild-type (WT) muscle nAChR (Mus musculus, UniProt P02716+P04756+P20782).
T1 construct: expressed in transfected cells; host or cells: mouse neuroblastoma Neuro2a cells, transient co-transfection with the Case12 calcium sensor
Nature of the data set: Fluorescent detection of cytoplasmic Ca2+ rise in transfected Neuro2a cells (Case12). Format: cell-based. The note with it: 2.5 μM MG, Ca2+ fluorescence.

For data set [3], the target named is T2, α1β3γ2 GABAAR (Mus musculus, UniProt P62812+P63080). Nature of the data set: Fluorescent α-Ctx competition assay on Neuro2a cells. Format: binding, murine. Further details: expressed in transfected cells; host or cells: mouse neuroblastoma Neuro2a cells, transient transfection. The note with it: 50 μM MG.
Data set [4] addresses topoisomerase I. Set-up: method as in doi:10.1016/S0040-4020(01)96256-8. The note with it: read-out: IC50 topoisomerase I inhibiting; cited from earlier work.
In data set [5] the test system is mice. Further details: method as in doi:10.1016/S0040-4020(01)96256-8. Particulars: cited from earlier work.
Data set [6] has as its target T3, Torpedo californica muscle-type nAChR (Tetronarce californica, UniProt P02710+P02714+P02718).
T3 construct: from tissue; host or cells: Torpedo californica electric organ membranes
Kind of data set: Intrinsic tryptophan fluorescence quenching. It is filed as binding. The note with it: 2 μM MG; λex 280 nm, λem 340 nm; prevented by α-Bgt pre-incubation. The procedure:
Intrinsic tryptophane fluorescence detection. Electric organ membranes of Torpedo californica at the final concentration of 1 nM of toxin-binding sites in a 20 mM Tris-HCl buffer were mixed with Makaluvamine G (final concentration 2 μM) and the control membranes were pre-incubated with 1 μM αBgt for 30 min. Measurements were done on a Cary Eclipse (Agilent, Santa Clara, CA, USA) spectrofluorimeter with a standard kinetics software (version 1.2) with excitation wavelength 280 nm and emission wavelength 340 nm (both with 5 nm slits). The data were exported to csv files and analyzed in the LibreOffice 6.0 Calc software (The Document Foundation, Berlin, Germany).

For data set [7], the target named is T4, rat α4β2 nAChR (Rattus norvegicus, UniProt P09483+P12390).
T4 construct: expressed in transfected cells; host or cells: Xenopus oocytes injected with plasmid DNA (pcDNA 3.1 vector)
Kind of data set: Two-electrode voltage clamp, ACh-evoked currents in Xenopus oocytes. It is filed as cell-based. A general note: Two-electrode voltage clamp holds a large cell at a set potential and records current.

The test system of data set [8] is different types of cells. Set-up: method as in doi:10.1016/S0040-4020(01)96256-8. The note with it: cited from earlier work.
Data set [9] has as its target T5, murine muscle nAChR (Mus musculus, UniProt P02716+P04756+P20782).
T5 construct: expressed in transfected cells; host or cells: Xenopus oocytes injected with plasmid DNA (pRBG4 vector)
Nature of the data set: Two-electrode voltage clamp, acetylcholine-evoked current in Xenopus oocytes. Format: cell-based. Particulars: for inhibition at 2.5 µM: holding potential −70 mV, read-out: inhibition extent, peak current amplitude.

Data set [10] has as its system mice. Nature of the data set: In vivo toxicity in mice (literature). The note with it: corresponds to 210 mg/kg.
For data set [11], the system named is homopentameric α1 GlyR. Set-up: method as in PMID 24686559. Particulars: cited from earlier work.
Data set [12] deals with human α7 nAChR. Further details: method as in PMID 24686559. The note with it: cited from earlier work.
Data set [13] has as its target T2, α1β3γ2 GABAAR. Nature of the data set: Two-electrode voltage clamp, GABA-evoked currents in Xenopus oocytes. It is filed as cell-based, murine. Particulars: 25 μM MG; surmountable by higher GABA concentrations.
Data set [14] relates to GABAAR. Particulars: cited from earlier work.
Details of data set [15]: method as in earlier work. Particulars: cited from earlier work.

Where two headings read alike, the source gives them in different places.

The IC50 is the point on the concentration scale where inhibition reaches its midpoint. What is called inhibition is how much of the control response was suppressed. On to `Cn1cc2c3c1C(=O)C(N/C=C/c1ccc(O)cc1)=CC3=[N+](C)CC2` [MG, Makaluvamine G], for which the “inhibition of [3H]-epibatidine binding” value in [1] was “partial”. The “effect on WT receptor dose response to acetylcholine” value in data set [2] was “does not affect”. For the same molecule, the “inhibition of fluorescent α-Ctx binding” value in data set [3] is reported as “Only partial inhibition”. In addition, the IC50 in data set [4] is about 3000 nM. In data set [5], the “dose not toxic to mice” value is on record as “up to 210 mg/kg”. Also, the “intrinsic Trp fluorescence quenching” value in [6] is “induces a drop of intrinsic tryptophan fluorescence”. In addition, the “inhibition of ACh-evoked currents” value in data set [7] (high micromolar range (25 μM MG, 50 μM acetylcholine)) is recorded as “only weak inhibition”. In addition, the “time to recovery of normal current amplitude after washout” value in data set [7] (reversibility of inhibition, data not shown) is 15 to 20 min. Besides, the concentrations showing cytotoxicity in [8] was 1000 to 70000 nM. The inhibition at 2.5 µM in data set [9] (2.5 μM MG co-applied with 10 μM acetylcholine) worked out at 27%; in data set [9] (2.5 μM MG co-applied with 1000 μM acetylcholine), 81%. The “dependence of inhibition on membrane potential (open-channel block)” value in data set [9] (2.5 μM MG, 30 μM acetylcholine, −30 to −100 mV, current amplitude and net charge) is “No increase in the inhibition”. For the same molecule, the “dose not toxic to mice, molar” value in [10] is 629 µmol/kg. Further, the “inhibition of α1 GlyR” value in [11] is recorded as “does not inhibit”. For the same molecule, the “potency at muscle nAChR relative to human α7 nAChR” value in [12] was “at least one order of magnitude more potent”. Further, the “inhibition of GABA-evoked currents” value in data set [13] is listed as “inhibits”.

On to `COc1cc2c3cc1Oc1cc(ccc1O)C[C@@H]1c4c(cc(OC)c(O)c4Oc4ccc(cc4)C[C@@H]3N(C)CC2)CC[N+]1(C)C` [d-tubocurarine], for which, in [14], the “affinity at GABAAR” value is given as “sub-micromolar”. Besides, the LD50 result in data set [15] is recorded as “less than 0.7 μmole/kg”.

Consider α-cobratoxin, for which the “affinity at GABAAR” value in data set [14] is “sub-micromolar”.

(Values after paper PMC5923396 (Marine Drugs, 2018).)
